From patent US7910621B2, “Small molecule antagonists of XIAP family proteins” (The Regents of the University of Michigan, priority 2004, dated 2011)
Ends that are not written are not given here. Peptide text beside a SMILES is read from it. * marks the point of attachment. 6FAM = O=C1OC2(c3ccc(O)cc3Oc3cc(O)ccc32)c2cc(C(=O)*)ccc21; Cbz = O=C(OCc1ccccc1)*; CH2F = FC*

Columns and labels:
[1] = target: T1, BIR3 domain (residues 241-356) of human XIAP (Homo sapiens, UniProt P98170); assay: XIAP binding assay, FP-based (Smac-Flu tracer); details: Table 5
T1 construct: the BIR3 domain (residues 241-356) of human XIAP fused to His-tag; His-tag
T1 sequence (P98170 241-356): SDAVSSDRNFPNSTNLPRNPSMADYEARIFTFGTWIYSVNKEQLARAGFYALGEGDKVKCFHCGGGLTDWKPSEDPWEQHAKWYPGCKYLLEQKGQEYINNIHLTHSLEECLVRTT
Procedure: An established sensitive and quantitative in vitro fluorescence polarization-based (FP) binding assay for testing of the binding affinity of each new small molecule inhibitor of XIAP is used. […] The competing inhibitor is then added in microtiter wells. If the inhibitor does compete with Smac-Flu to bind to XIAP, it displaces the Smac-Flu peptide from the complex and cause a reduction in the polarization value. […] The change in the polarization value is used to determine the relative affinity of the inhibitor for XIAP. The XIAP used in this assay is the BIR3 domain (residues 241-356) of human XIAP fused to His-tag.
The FP assays were performed as follows: each 96-well contains 50 nM Smac-Flu peptide, 985 nM XIAP protein and 5 ul tested compounds in a final volume of 20 ul. Tested compounds were serially diluted in triplicate in concentration from 0 to 100 uM. For each assay negative controls containing XIAP and Smac-Flu (equivalent to 0% inhibition) and positive controls containing only free Smac-Flu peptide (equivalent to 100% inhibition) were included on each assay plate. The polarization values were measured after 3 hour incubation when the binding reached equilibrium. IC50 values were determined from the plot using nonlinear least-squares analysis. Curve fitting was performed using […] PRISM software. The Kis of competing compounds were derived from the measured IC50 and the Kd of Smac-Flu in the competition assays, using the Cheng-Prusoff equation. The fluorescence intensity of each tested inhibitor is closely monitored to exclude any false positives. Furthermore, compounds with high fluorescence intensity are tested using the NMR methods described below.

[2] = target: T2, human XIAP BIR3 protein (residues 241-356) (Homo sapiens, UniProt P98170); assay: FP direct binding of fluorescent labeled Smac peptides to XIAP BIR3 (Kd titration)
T2 construct: The human XIAP BIR3 protein (residues 241-356) with a His tag; His tag
T2 sequence (P98170 241-356): as above

[3] = tested on: Jurkat-XIAP cells; assay: Cell growth assay, Jurkat-XIAP; type: cell-based
Procedure: (§1) FIG. 9 presents inhibition of cell growth by embelin in Jurkat-Vec and Jurkat-XIAP cells. The cell growth results are expressed as the percent of control and calculated from the percent of absorbance of treated wells versus that of vehicle control.
(§2) Human prostate cancer cell lines (PC-3, LNCap, CL-1, DU-145), and normal human fibroblast cell line WI-38 were obtained from the American Type Culture Collection (ATCC), were grown and maintained in Dulbecco's modified Eagle's medium (DMEM) containing 10% FBS (Invitrogen Corporation). Normal human prostate epithelial cells (PrEC) were obtained from Clonetics (Cambrex Inc., MD) and maintained in the special medium provided by the company. Jurkat T-cells stably transfected with either empty vector (Jurkat-Vec), or XIAP (Jurkat-XIAP) and were cultured in RPMI 1640 containing 10% fetal calf serum and 1 ug/ml puromycin. Cell cultures were maintained in a humidified incubator at 37° C. and 5% CO2.
Cell growth was determined by the MTT-based assay using Cell Proliferation Reagent WST-1 (Roche) according to the manufacturer's instruction. The WST-1 assay is a colorimetric assay that measures the reduction of WST-1 by mitochondrial succinate dehydrogenase, which belongs to the respiratory chain of the mitochondria and is active only in viable cells. The WST-1 enters the cells and passes into the mitochondria, where it is reduced to a soluble, colored formazan product. The amount of formazan dye formed directly correlates to the number of metabolically active cells in the culture. Cells (5000 cells/well) were grown in medium with 10% FBS, and various concentrations of drugs were added to the cells in triplicate. […] Absorbance was measured with a plate reader at […] with correction at […]. The results are expressed as the percent of absorbance of treated wells versus that of vehicle control.

[4] = tested on: Jurkat-Vec cells; assay: Cell growth assay, Jurkat-Vec; type: cell-based; details: 2.5 μM, 72 hours
Procedure: as §1, §2
Cell growth was determined by the MTT-based assay using Cell Proliferation Reagent WST-1 (Roche) according to the manufacturer's instruction. […] Absorbance was measured with a plate reader at […] with correction at […]. The results are expressed as the percent of absorbance of treated wells versus that of vehicle control.

[5] = target: XIAP BIR3 protein of human XIAP (residues 241-356) (Homo sapiens, UniProt P98170); assay: biochemical
Chain of XIAP BIR3 protein of human XIAP (residues 241-356) (P98170 241-356): as above

[6] = tested on: caspase-9 in PC-3 cells; assay: Activation of caspase-9 assay, PC-3; type: cell-based, human; details: for blocking of active caspase-9 staining in Annexin V-FITC positive cells by pre-incubation: embelin-treated PC-3 cells pre-incubated with excessive inhibitor (20 μM LEHD-FMK, 5 min) before staining
Procedure: FIGS. 7A and 7B show the activation of caspase-9 by embelin in PC-3 prostate cancer cells and its selectivity in normal prostate epithelial cells. 1×10^6 PC-3 or PrEC cells per well in 6-well culture plates were treated with embelin for 48 hours. […] The cells were collected and stained of active caspase-9 by CaspGLOW Red Active Caspase-9 Staining Kit, and analyzed by flow cytometry in PI channel.
1×10^6 PC-3 cells per well in 6-well culture plates, were treated with various concentrations of embelin, or the same amount of solvent DMSO as vehicle control, for up to 48 hr. […] The cells were collected for staining of active caspase-9 by CaspGLOW Red Active Caspase-9 Staining Kit (BioVision, Inc., Mountain View, Calif.) according to the manufacturer's instructions, with modification. Briefly, to each tube containing 1×10^6 treated or control cells in 0.3 ml complete culture medium was added 1 μl of Red-LEHD-FMK and incubated for 0.5 hr at 37° C. incubator with 5% CO2. For double staining with Annexin V-FITC, the cells were spun down and resuspended in 100 μl Binding Buffer containing 1× Annexin V-FITC from the Annexin-V-FLUOS Kit (Roche) and incubated at room temperature for 10 min. The cells were then washed two times with Wash Buffer from the Active Caspase-9 Staining Kit. The cells were resuspended in 0.3 ml Binding Buffer and analyzed by flow cytometry, using PI channel for active caspase-9 and FITC channel for apoptosis.
The active caspase-9 and Annexin V double stained cells were also observed under Zeiss Laser Scanning Confocal Microscope LSM 510 Meta, using the fluorescent filter sets for rhodamine (Red) and FITC (green) channels. Early apoptotic cells show green fluorescence on the cell membrane while caspase-9 positive cells show bright red staining in the cytoplasm. Photos were taken at original magnification of 630×.

Compound | IC50 [1] [µM] | further results
Cc1ccc(CCc2cccc(CCC3=C(O)C(=O)C=C(O)C3=O)c2)cc1 [CJ-274] | 2.14 ± 0.73 | –
CC(C)c1ccc(CCc2cccc(CCC3=C(O)C(=O)C=C(O)C3=O)c2)cc1 [CJ-294] | 3.76 ± 0.25 | –
CC(C)c1ccc(CCc2cccc(CCC3=C(O)C(=O)C=C(O)C3=O)c2)cc1 [CJ-301] | 3.42 ± 0.31 | –
Cc1ccc(NC(=O)c2cccc(CCC3=C(O)C(=O)C=C(O)C3=O)c2)cc1 [CJ-305] | 1.62 ± 0.28 | –
Cc1ccc(CNC(=O)c2cccc(CCC3=C(O)C(=O)C=C(O)C3=O)c2)cc1 [CJ-315] | 5.27 ± 1.43 | –
Cc1cccc(NC(=O)c2cccc(CCC3=C(O)C(=O)C=C(O)C3=O)c2)c1 [CJ-322] | 4.89 ± 0.75 | –
Cc1ccccc1NC(=O)c1cccc(CCC2=C(O)C(=O)C=C(O)C2=O)c1 [CJ-323] | 11.6 ± 0.96 | –
O=C1C=C(O)C(=O)C(CCc2cccc(C(=O)Nc3ccc(Cl)c(Cl)c3)c2)=C1O [CJ-327] | 12.3 ± 1.09 | –
O=C1C=C(O)C(=O)C(CCc2ccccc2)=C1O [CJ-331] | 89.1 ± 11.3 | –
CC(C)CCCCCC1=CC(=O)C=C(O)C1=O [EW-2] | 61.4 ± 9.29 | –
O=C1C=C(O)C(=O)C(CCCCc2ccccc2)=C1 [EW-3] | 353 ± 79.4 | –
CCCCc1cccc(CCC2=C(O)C(=O)C=C(O)C2=O)c1 [EW-4] | 27.6 ± 2.76 | –
O=C1C(O)=C(CCc2cccc(CCc3ccccc3)c2)C(=O)C(O)=C1CCc1ccccc1 [EW-6] | 14.3 ± 2.41 | –
O=C1C=C(O)C(=O)C(CCc2cccc(CCc3cccc(Cl)c3)c2)=C1O [EW-7] | 9.18 ± 1.9 | –
O=C1C=C(O)C(=O)C(CCc2cccc(CCc3ccc(Cl)cc3)c2)=C1O [EW-8] | 8.05 ± 1.48 | –
CCC1=C(O)C(=O)C=C(O)C1=O [EW-9] | 475 ± 122 | –
C[C@H](N)C(=O)N[C@@H](CCCNC(=N)N)C(=O)N1CCC[C@H]1C(=O)N[C@@H](Cc1ccccc1)C(=O)N[C@@H](C)C(=O)N[C@@H](CCC(N)=O)C(=O)N[C@@H](CCCCNC(=O)c1ccc2c(c1)C1(OC2=O)c2ccc(O)cc2Oc2cc(O)ccc21)C(=O)O [SM7F, ARPFAQK-FAM] (H-ARPFAQK(6FAM)-OH; N-terminus and C-terminus assumed) | – | binding affinity compared with S9F [2]: higher binding affinity than S9F; ratio of the Kd values between labeled SM7F and S9F [2]: 7.3 times
COc1cc([C@@H]2c3cc4c(cc3[C@@H](O[C@@H]3O[C@@H]5CO[C@@H](C)O[C@H]5[C@H](O)[C@H]3O)[C@H]3COC(=O)[C@H]23)OCO4)cc(OC)c1O [etoposide] | – | cells killed in cell growth assay ([3]; 2.5 μM, 72 hours): 59%±2%; cells killed in cell growth assay ([3]; 10 μM): 85%±0.1%; cells killed in cell growth assay [4]: 94.3%±0.6%
ARPFAQK [SM7] | – | IC50 [5]: 0.57 ± 0.11 µM
Cbz-Val-Ala-Asp-CH2F [ZVAD peptide, reference compound] | – | blocking of Annexin V-FITC and active caspase-9 double staining ([6]; PC-3 cells, 40 μM embelin, 48 hrs): blocked; inhibition of embelin-induced activation of caspase-9 ([6]; pan-caspase inhibitor added 5 min before embelin): effectively inhibited
LEHD-FMK [reference compound] | – | blocking of active caspase-9 staining in Annexin V-FITC positive cells by pre-incubation [6]: blocked
ZDEVD-FMK [reference compound] | – | blocking of active caspase-9 staining in Annexin V-FITC positive cells by pre-incubation [6]: did not
